Like-named read-outs stand apart in the source and are kept apart here.

The subject of series [1] is P. falciparum Dd2 (PfLuc) line expressing firefly luciferase, asexual blood stage. In words: microbe, parasite or virus in culture. Further details: species or system P. falciparum Dd2-luciferase in human red blood cells; PfLuc Dd2 asexual blood stage luciferase viability, BrightGlo luminescence, 48 h. The settings on record: Plasmodium falciparum, DD2, Erythrocyte, read-out: CDD P. falciparum Luciferase 11pt dose response (48hr, n=2): IC50 (μM), 11-point. As to the method: (§1) A transgenic line of Plasmodium falciparum (Dd2) constitutively expressing firefly luciferase was used for primary and reconfirmation screening. Cultures were maintained in complete media at 5% hematocrit (Human Whole Blood O+) and incubated at 37 °C in a low oxygen environment (3% O2, 5% CO2, and 92% N2). Culture health and parasitemia were tracked by Giemsa staining and bright field microscopy. Prior to dispensing parasites for primary screening, 20 nL of test compounds and 10 nL of control compounds (artemisinin and DMSO) were seeded per well using an Echo 550 acoustic dispenser (Labcyte) for final assay concentrations of 5 and 10 μM, respectively. When parasite cultures reached 3% to 8% parasitemia, as determined by a blood smear, infected blood was centrifuged at 800g for 5 min. […] From this blood mixture, 8 μL was dispensed per well in 1536-well, white, solid-bottom plates (789173-F, Greiner) using a MultiFlo FX Multi-Mode dispenser (BioTek). Plates were covered with a porous metal lid and incubated at 37 °C inside large plastic Ziploc bags filled with a blood gas mixture (3% O2, 5% CO2, and 92% N2) for 96 h. To prevent evaporation, a clean tray of water was included within each bag. Following incubation, BrightGlo was prepared by manufacturer specifications and dispensed at 2 μL per well using the MultiFlo dispenser. Plates were left for 20 min before being read with the ViewLux uHTS microplate imager (PerkinElmer) with a 90 s exposure time at the High Sensitivity Luminescence setting. Raw data were processed using GeneData (v12.0.5), whereby activity was normalized to negative minus positive controls. The correction of Runwise Pattern (Multiplicative) was applied, and compounds were considered hits when activity was reduced by ≥70%. […] Also, plates tested in 11-point dose response format were incubated at both 48 a From these (Sets 1 and 2), compounds were resupplied as fresh powders and evaluated in 11-point dose response tests (Pfluc; n = 2) for the two time points.

Series [2] shares this test system. The series can be described thus: microbe, parasite or virus in culture. More on the design: species or system P. falciparum Dd2-luciferase in human red blood cells; PfLuc Dd2 asexual blood stage luciferase viability, BrightGlo luminescence, 96 h. The settings on record: Plasmodium falciparum, DD2, Erythrocyte, read-out: CDD P. falciparum Luc 11pt dose response (96hr, n=2): IC50 (μM), 11-point. On the procedure: as §1, with “The primary assay was run at a compound concentration of 5 μM. Briefly, 8 μL of an ABS parasite mixture (∼10,000 parasites) was dispensed into 1536-well plates previously spotted with 64,811 GHCDL compounds (the remaining 3642 library compounds arrived later” for “From these (Sets 1”, “and” for “and 2), compounds”, “evaluated separately). After a 96 h incubation, 2 μL of luciferin (BrightGlo) was added,” for “resupplied as fresh powders”, “the luminescent signal was measured. Bioluminescence was normalized to DMSO (negative control) and artemisinin-treated (positive control) wells” for “evaluated in 11-point dose response tests (Pfluc; n = 2)”, “single point screens. For this primary screen, assay fidelity was determined on a per plate basis using both the Z′-factor and the potency variance of the positive (artemisinin) and negative (DMSO) controls. The mean Z′ value was 0.60 (range of 0.43–0.75), with only one plate falling below our ideal 0.5 threshold (Figure S1).” for “two time points.”

Series [3] deals with P. falciparum Dd2. The series can be described thus: microbe, parasite or virus in culture. Further details: species or system P. falciparum Dd2 in human red blood cells; SYBR Green I asexual blood stage proliferation (DNA) assay, P. falciparum Dd2, 96 h. Conditions: Plasmodium falciparum, DD2, Erythrocyte, 96 h, read-out: CDD P. falciparum Sybr Green I ABS Dd2 Dose Response: IC50 (uM).

For series [4], the system named is P. falciparum (NF54) stage V gametocytes. The series can be described thus: Stage V gametocyte viability assay (MitoTracker Red CMXRos high content imaging). The class given is cell-based, Plasmodium falciparum. The settings on record: Plasmodium falciparum, NF54, 72 h.
The test system of series [5] is HepG2-A16-CD81 hepatocytes. The series can be described thus: cells. Conditions: sheet CDD Export 1;, cytotoxicity primary screen, read-out: Table S5. Liver stage reconfirmation data / HepG2 Cytotoxicity primary screen (2uM): % Inhibition. More on the design: Uninfected hepatocyte viability, CellTiter-Glo luminescence. On the procedure: For the screen, 5 μL of HepG2-A16-CD81 hepatocytes containing 3 × 10^3 cells was seeded into 1536-well plates, which had been prespotted with 10 nL of library compound (2 μM final assay concentration (Figure 1)) and incubated overnight. For PbLuc infected plates, approximately 750 purified sporozoites in 5 μL of screening media were added to each well and incubated for 48 h before measuring luciferase activity. Compounds were tested for toxicity in parallel (see Methods) by measuring uninfected hepatocyte viability using CellTiter-Glo. […] This hit rate was slightly lower than expected for an agnostic library, which prompted us to rescreen the entire library at 10 μM. The PbLuc and cytotoxicity assay plates for this second replicate would be stamped in-house with 50 nL of library compound per well, using the same compound plates as the sexual stage screen described below. All the assay parameters were kept similar, except the change in concentration and shortening the time the compounds spent in each well prior to infection. […] All potential false positive effectors from the CellTiter-Glo assay were filtered from subsequent studies (Table S1). Naturally, there were more primary hits from the 10 μM than the 2 μM screen due to the higher testing concentration. For reconfirmation, we sourced all the hits that inhibited PbLuc at >70% and mean HepG2 at <50% in the 2 μM screen or PbLuc at >60% in both 2 and 10 μM screens and mean HepG2 at <50%. The resulting compounds were acquired as DMSO stocks and retested in the dose response (50–2.82 × 10^–4 μM or 25–141.13 × 10^–6 μM) against PbLuc and uninfected hepatocytes (Table S5). […] The majority of these compounds were weak inhibitors, although 18 submicromolar hits were found (Table S5).

The subject of series [6] is P. berghei liver stage (PbLuc). In words: P. berghei luciferase liver stage (PbLuc) assay in HepG2-A16-CD81 hepatocytes. The class given is cell-based, Plasmodium berghei. The settings on record: Plasmodium berghei.
Series [7] has as its system HepG2-A16-CD81 hepatocytes. In words: HepG2 cytotoxicity screening (CellTiter-Glo). In general terms: Cellular ATP, detected with luciferase, serves as a proxy for viable cell number.
Series [8] concerns the target recombinant firefly luciferase (Photinus pyralis, UniProt P08659). In words: biochemical.
A short description of series [9]: in vitro. The settings on record: human.

Chain of recombinant firefly luciferase (P08659 whole entry): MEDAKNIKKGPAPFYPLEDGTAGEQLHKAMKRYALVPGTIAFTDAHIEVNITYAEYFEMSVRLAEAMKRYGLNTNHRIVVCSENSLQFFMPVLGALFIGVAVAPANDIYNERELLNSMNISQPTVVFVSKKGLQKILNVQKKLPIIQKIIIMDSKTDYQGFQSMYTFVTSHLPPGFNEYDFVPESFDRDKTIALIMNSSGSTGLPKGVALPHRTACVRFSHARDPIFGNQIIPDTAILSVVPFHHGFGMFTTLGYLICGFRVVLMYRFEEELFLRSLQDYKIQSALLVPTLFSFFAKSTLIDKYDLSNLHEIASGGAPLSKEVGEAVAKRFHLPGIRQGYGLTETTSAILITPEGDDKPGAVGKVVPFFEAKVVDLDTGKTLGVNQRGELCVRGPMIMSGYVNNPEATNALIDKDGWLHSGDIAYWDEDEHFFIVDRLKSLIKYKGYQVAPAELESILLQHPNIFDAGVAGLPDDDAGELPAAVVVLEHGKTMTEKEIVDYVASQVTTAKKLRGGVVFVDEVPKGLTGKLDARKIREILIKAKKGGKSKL

For the molecule `CN(C)CCCNCCC(c1ccccc1)C1CCOC(C)(C)C1` (centres unmarked) [DDD01026663], the half-maximal inhibitory concentration (IC50) – broadly, the concentration that inhibits the measured activity by half – was 2.82 µM in series [1], 0.627 µM in series [2] and greater than 1.39 µM in series [3].

Turning to `CC(C)C[C@H](N)C(=O)N1CC2(CCNCC2)c2cc(Cl)ccc21` [DDD01029528, CC(C)C[C@H](N)C(=O)N1CC2(CCNCC2)C2=CC(Cl)=CC=C12], the half-inhibitory concentration (IC50) in series [1] came to 1.79 µM; in series [2] it was 0.553 µM; in [3], 1.52 µM; in series [4] (read-out: Stg V Gam dose response IC50 (µM) (n=3), 10-point dose response, n=3, 72 h), 3.02 µM. Moreover, the inhibition at 2 µM in series [4] (read-out: Stg V Gam primary screen: Inhibition % (2uM) (n=2)) stood at 49.8%.

`Cc1ccc(-c2ccccc2CC2(C(=O)NC(C)C)CCCNC2)cc1` (centres unmarked) [DDD01056815]: the IC50 is greater than 4.16 µM in series [1], 0.863 µM in series [2] and greater than 4.16 µM in series [3].

For the molecule `CN(C)CCNC(=O)c1sc2ccccc2c1C1CCC(CN)CC1` (centres unmarked) [DDD01058779], the IC50 in [1] amounted to 1.31 µM; in series [2], 2.3 µM; in series [3], 1.65 µM.

As to `CCOC(=O)C1(Cc2ccccc2-c2ccccc2OC)CCNCC1` [DDD01059034], the IC50 was 5.11 µM in series [1], 0.861 µM in series [2] and greater than 4.16 µM in series [3].

Regarding `CNc1nc(C)c(-c2nc(-c3c(C)ncc4c3CCNC4)no2)s1` [DDD01244276], the IC50 in series [1] turned out to be 0.956 µM; in series [2], 0.337 µM; in series [3] it was 1.65 µM.

As for `Cc1cc(N2CCC(NC(C)Cc3ccsc3)CC2)nc(N)n1` (centres unmarked) [DDD01252553], the IC50 in series [1] came out at 1.11 µM; in [2], 0.246 µM; in [3], 1.01 µM.

In the case of `c1ccc(-c2ccc(C3CNCCO3)nc2)cc1` (centres unmarked) [DDD01270216], the IC50 is 1.77 µM in [1]; 1.44 µM in [2]; less than 0.141 nM in series [6] (HepG2-A16-CD81, 48 h, 48 h liver stage, HepG2-A16-CD81, read-out: Pbluc (EEF) IC50); greater than 12.5 µM in series [3]; greater than 25 µM in series [7] (HepG2-A16-CD81, read-out: HepG2 tox IC50); 220 nM in series [8] (read-out: rLuc IC50). Further, the inhibition at 2 µM in [5] is 6.27%.

Regarding `c1ccc(CCCN2CCN(c3ccc4nncn4n3)CC2)cc1` [DDD01295523], the 50% inhibitory concentration (IC50) in [1] came out at 3.86 µM; in series [2], 0.912 µM.

Consider `COc1cc(C(=O)NCc2ccc3c(c2)CCCN3C)cc(OC)c1Br` [DDD01300030], for which the IC50 in [1] is 5.74 µM; in series [2], 2.46 µM; in series [3] it was greater than 12.5 µM.

For `COc1ccc(CNCC2CCN(CC(C)O)CC2)c2ccccc12` (centres unmarked) [DDD01302860], the figures for the half-maximal inhibitory concentration (IC50) in series [1], in series [2] and in series [3] were 1.27 µM, 0.621 µM and 0.743 µM, respectively.

In the case of `CCS(=O)(=O)N1[CH]Cc2ccc(NC(=O)Nc3cccc(C#N)c3)cc21` [UCSD-0785775], the Emax in series [6] (HepG2-A16-CD81, 48 h, 12pt dose response, maximum inhibition) was determined as 91.5%; in series [8] (dose response, maximum inhibition, read-out: rLuc inhibition dose response: Maximum inhibition (%)), 6.44%. Further, the inhibition at 2 µM was -22.1% in series [6] (HepG2-A16-CD81, primary screen, 2 uM) and -2.63% in series [9]. The inhibition at 10 µM in series [6] (HepG2-A16-CD81, primary screen, 10 uM) was determined as 86.7%; in series [9], 39.2%. Besides, the IC50 in series [6] (HepG2-A16-CD81, read-out: PbLuc 12pt dose response: IC50) is 1360 nM; in series [8] (dose response, read-out: rLuc inhibition dose response: IC50) it was greater than 25000 nM; in [9], greater than 25 µM. Also, the “HepG2 cytotoxicity 12pt dose response: Maximum inhibition (%)” value in [7] (12pt dose response, maximum inhibition) is 52.4%.

For the molecule `O=C1[C@@H]2CC[C@@H](CN(c3ncnc4ccsc34)C2)N1CC1CC1` [UCSD-0827296], the inhibition at 2 µM in series [9] is -8.03%.

On to `O=C1NCCN1C1CCCN(Cc2coc(-c3ccc(F)cc3)n2)C1` (centres unmarked) [UCSD-0845351], for which the inhibition at 2 µM in series [9] was determined as 0.09%.
